Structures can show the parent of a compound that is named as a salt.
Assays:
Mu-type opioid receptor = Mu-type opioid receptor (Homo sapiens, UniProt P35372); experiment: (§1) PDSP Secondary Binding target: OPRM1 - Compounds are tested at 10 uM concentration, plate are incubated at room temperature in the dark for 90 minutes. Reaction are stopped by vacuum filtration onto 0.3% polyethyleneimine soaked filter mats using Filtermate harvester. Scintillation cocktail is then melted onto microwave-dried filters on a hot plate and the radio activity is counted in Microbia counter.
Sequence of Mu-type opioid receptor (P35372 whole entry): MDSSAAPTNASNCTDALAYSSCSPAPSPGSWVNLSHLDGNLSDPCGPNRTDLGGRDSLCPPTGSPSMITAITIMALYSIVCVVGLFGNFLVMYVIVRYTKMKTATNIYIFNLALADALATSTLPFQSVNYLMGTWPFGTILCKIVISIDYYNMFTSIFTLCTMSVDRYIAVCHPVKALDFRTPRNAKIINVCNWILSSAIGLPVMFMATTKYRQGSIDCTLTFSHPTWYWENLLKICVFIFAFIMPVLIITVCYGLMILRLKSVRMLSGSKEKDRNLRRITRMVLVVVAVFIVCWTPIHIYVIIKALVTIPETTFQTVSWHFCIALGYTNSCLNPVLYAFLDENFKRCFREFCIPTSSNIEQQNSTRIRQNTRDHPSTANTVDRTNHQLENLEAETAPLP

[1] = biological target: T1, Alpha-2C adrenergic receptor (Homo sapiens, UniProt P18825); experiment: as §1, with “ADRA2C” for “OPRM1”
T1 sequence (P18825 whole entry): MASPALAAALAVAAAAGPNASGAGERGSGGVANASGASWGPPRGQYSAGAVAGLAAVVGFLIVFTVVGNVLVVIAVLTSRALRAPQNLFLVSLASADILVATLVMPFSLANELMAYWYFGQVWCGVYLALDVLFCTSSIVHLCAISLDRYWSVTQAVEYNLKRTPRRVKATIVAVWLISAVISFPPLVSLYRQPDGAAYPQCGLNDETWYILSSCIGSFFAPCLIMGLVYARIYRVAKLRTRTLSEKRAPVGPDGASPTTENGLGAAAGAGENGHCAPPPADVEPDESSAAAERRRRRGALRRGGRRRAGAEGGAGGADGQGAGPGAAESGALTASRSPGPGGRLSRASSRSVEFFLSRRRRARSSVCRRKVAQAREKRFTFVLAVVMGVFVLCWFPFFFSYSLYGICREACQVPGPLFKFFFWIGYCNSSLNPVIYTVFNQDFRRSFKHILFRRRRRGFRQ

Histamine H1 receptor = Histamine H1 receptor (Homo sapiens, UniProt P35367); experiment: as §1, with “HRH1” for “OPRM1”
[2] = biological target: 5-hydroxytryptamine receptor 2A (Homo sapiens, UniProt P28223); experiment: as §1, with “HTR2A” for “OPRM1”
Sequence of 5-hydroxytryptamine receptor 2A (P28223 whole entry): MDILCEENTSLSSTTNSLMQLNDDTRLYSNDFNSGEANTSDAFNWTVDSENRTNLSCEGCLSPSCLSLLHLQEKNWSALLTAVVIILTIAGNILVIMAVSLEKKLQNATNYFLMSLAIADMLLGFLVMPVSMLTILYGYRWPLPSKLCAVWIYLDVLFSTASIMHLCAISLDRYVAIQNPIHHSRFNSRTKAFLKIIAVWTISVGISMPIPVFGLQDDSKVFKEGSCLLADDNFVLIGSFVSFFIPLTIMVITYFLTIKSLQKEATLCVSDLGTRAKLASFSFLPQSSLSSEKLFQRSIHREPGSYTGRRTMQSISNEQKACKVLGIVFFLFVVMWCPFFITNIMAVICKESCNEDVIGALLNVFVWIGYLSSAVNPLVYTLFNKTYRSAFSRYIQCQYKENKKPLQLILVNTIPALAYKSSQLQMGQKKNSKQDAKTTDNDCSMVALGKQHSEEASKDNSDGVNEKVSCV

[3] = biological target: Muscarinic acetylcholine receptor M3 (Homo sapiens, UniProt P20309); experiment: as §1, with “CHRM3” for “OPRM1”
Sequence of Muscarinic acetylcholine receptor M3 (P20309 whole entry): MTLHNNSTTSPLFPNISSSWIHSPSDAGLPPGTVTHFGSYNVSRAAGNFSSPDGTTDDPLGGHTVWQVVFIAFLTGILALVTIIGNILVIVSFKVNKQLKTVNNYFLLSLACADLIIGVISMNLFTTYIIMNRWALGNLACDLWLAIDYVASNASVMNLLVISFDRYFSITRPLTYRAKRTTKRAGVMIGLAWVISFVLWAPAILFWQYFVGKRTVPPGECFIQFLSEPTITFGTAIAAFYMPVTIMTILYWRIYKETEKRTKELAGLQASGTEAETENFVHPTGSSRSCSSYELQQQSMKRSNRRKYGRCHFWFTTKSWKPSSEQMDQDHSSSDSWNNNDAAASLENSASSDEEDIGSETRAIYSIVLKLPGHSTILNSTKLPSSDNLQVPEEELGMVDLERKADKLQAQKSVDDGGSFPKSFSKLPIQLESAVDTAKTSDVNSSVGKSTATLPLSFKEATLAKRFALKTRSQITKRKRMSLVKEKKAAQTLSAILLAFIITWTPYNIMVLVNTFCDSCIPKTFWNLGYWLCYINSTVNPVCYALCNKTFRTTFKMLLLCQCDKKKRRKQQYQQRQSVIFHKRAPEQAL

[4] = biological target: T2, 5-hydroxytryptamine receptor 1A (Homo sapiens, UniProt P08908); experiment: as §1, with “HTR1A” for “OPRM1”
T2 sequence (P08908 whole entry): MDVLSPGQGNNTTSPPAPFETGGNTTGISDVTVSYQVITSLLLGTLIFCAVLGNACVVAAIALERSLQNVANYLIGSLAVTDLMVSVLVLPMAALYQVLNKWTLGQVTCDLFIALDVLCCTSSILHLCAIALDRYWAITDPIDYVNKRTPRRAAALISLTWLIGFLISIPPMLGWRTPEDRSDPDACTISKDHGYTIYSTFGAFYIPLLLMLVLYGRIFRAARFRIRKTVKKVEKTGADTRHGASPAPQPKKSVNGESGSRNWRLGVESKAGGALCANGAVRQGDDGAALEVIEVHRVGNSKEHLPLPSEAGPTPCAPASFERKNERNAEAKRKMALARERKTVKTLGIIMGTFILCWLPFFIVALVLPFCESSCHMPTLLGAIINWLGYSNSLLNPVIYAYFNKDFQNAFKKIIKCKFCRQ

[5] = biological target: Sodium-dependent dopamine transporter (Homo sapiens, UniProt Q01959); experiment: as §1, with “SLC6A3” for “OPRM1”
Sequence of Sodium-dependent dopamine transporter (Q01959 whole entry): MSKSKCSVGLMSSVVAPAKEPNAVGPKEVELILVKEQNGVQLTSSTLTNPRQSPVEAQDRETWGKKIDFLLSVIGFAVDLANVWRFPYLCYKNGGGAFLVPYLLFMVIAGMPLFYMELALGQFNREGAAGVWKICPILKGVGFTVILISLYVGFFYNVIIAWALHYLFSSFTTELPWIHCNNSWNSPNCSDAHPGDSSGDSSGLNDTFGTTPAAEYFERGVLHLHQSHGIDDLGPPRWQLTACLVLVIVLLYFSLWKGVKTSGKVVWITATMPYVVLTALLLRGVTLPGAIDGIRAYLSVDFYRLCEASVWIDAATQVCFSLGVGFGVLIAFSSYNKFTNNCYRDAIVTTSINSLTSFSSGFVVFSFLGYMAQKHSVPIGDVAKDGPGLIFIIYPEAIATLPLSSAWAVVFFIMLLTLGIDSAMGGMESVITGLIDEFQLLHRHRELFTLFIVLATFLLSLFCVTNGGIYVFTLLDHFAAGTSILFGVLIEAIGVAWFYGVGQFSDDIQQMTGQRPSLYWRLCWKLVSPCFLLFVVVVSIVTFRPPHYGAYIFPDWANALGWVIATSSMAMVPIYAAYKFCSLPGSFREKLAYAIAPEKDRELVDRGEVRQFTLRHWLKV

D(4) dopamine receptor = biological target: T3, D(4) dopamine receptor (Homo sapiens, UniProt P21917); experiment: as §1, with “DRD4” for “OPRM1”
T3 sequence (P21917 whole entry): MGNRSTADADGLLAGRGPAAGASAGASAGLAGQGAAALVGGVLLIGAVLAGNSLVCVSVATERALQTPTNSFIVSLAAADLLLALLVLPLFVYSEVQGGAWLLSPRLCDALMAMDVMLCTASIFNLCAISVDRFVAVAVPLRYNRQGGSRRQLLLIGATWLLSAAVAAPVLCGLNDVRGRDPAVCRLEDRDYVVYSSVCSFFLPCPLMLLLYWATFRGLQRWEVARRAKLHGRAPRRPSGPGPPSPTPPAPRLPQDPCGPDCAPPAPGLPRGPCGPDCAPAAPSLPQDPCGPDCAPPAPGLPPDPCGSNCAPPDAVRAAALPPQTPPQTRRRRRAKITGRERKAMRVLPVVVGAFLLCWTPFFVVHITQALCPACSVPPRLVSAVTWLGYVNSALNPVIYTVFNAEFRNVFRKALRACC

[6] = biological target: Sodium-dependent serotonin transporter (Homo sapiens, UniProt P31645); experiment: as §1, with “SLC6A4” for “OPRM1”
Sequence of Sodium-dependent serotonin transporter (P31645 whole entry): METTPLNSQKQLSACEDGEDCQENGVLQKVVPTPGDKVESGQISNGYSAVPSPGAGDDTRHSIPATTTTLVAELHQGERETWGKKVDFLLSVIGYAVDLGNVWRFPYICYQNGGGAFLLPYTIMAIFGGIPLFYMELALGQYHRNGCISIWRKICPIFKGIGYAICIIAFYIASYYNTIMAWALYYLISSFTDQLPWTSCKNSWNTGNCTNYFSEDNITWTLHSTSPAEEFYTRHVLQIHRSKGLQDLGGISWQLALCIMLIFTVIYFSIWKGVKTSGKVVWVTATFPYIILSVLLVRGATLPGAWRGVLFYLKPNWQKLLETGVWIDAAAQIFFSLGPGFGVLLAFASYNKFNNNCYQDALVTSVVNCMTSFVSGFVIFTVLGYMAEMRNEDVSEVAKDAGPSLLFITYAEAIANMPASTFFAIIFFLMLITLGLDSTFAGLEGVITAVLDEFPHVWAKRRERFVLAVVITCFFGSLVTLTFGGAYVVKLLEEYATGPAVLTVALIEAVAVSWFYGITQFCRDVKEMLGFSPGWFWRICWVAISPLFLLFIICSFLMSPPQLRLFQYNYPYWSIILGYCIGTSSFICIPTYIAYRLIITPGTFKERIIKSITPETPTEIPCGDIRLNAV

D(1A) dopamine receptor = D(1A) dopamine receptor (Homo sapiens, UniProt P21728); experiment: as §1, with “DRD1” for “OPRM1”
Sequence of D(1A) dopamine receptor (P21728 whole entry): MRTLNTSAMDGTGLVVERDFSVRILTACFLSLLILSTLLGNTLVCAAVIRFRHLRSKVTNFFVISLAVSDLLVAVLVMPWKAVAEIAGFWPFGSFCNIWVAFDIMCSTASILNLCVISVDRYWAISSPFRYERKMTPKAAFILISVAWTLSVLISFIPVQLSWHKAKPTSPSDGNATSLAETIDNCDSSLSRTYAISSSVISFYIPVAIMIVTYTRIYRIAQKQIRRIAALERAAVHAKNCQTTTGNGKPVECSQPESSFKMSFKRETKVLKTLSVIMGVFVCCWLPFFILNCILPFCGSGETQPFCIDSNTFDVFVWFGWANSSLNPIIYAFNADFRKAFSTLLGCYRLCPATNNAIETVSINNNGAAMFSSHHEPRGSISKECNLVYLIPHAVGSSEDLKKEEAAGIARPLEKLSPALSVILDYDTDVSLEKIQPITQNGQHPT

D(1B) dopamine receptor = D(1B) dopamine receptor (Homo sapiens, UniProt P21918); experiment: as §1, with “DRD5” for “OPRM1”
Sequence of D(1B) dopamine receptor (P21918 whole entry): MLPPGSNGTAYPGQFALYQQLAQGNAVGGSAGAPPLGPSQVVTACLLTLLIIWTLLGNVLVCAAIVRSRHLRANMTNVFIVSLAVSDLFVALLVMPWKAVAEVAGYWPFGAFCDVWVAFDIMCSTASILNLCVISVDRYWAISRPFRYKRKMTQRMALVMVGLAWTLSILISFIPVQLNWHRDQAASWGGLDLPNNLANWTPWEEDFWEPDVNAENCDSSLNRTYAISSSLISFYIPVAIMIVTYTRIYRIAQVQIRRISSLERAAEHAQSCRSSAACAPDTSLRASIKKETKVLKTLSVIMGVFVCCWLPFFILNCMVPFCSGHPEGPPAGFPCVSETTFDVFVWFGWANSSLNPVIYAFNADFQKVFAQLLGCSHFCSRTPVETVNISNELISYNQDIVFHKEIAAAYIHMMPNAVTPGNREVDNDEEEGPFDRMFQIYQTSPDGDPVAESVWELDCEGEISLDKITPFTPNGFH

D(2) dopamine receptor = D(2) dopamine receptor (Homo sapiens, UniProt P14416); experiment: as §1, with “DRD2” for “OPRM1”
Sequence of D(2) dopamine receptor (P14416 whole entry): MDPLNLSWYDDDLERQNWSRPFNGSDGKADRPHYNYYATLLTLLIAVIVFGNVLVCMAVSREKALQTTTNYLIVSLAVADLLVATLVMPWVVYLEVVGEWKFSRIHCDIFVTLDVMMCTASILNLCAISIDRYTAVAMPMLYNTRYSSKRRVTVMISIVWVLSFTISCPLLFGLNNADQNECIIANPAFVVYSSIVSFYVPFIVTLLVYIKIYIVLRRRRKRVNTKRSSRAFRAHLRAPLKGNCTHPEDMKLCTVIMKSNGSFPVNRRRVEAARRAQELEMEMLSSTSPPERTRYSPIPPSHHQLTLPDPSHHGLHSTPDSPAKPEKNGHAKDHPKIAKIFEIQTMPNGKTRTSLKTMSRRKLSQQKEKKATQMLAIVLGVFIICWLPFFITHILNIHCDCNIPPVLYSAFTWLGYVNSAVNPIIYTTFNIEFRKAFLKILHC

[7] = biological target: 5-hydroxytryptamine receptor 2B (Homo sapiens, UniProt P41595); experiment: as §1, with “HTR2B” for “OPRM1”
Sequence of 5-hydroxytryptamine receptor 2B (P41595 whole entry): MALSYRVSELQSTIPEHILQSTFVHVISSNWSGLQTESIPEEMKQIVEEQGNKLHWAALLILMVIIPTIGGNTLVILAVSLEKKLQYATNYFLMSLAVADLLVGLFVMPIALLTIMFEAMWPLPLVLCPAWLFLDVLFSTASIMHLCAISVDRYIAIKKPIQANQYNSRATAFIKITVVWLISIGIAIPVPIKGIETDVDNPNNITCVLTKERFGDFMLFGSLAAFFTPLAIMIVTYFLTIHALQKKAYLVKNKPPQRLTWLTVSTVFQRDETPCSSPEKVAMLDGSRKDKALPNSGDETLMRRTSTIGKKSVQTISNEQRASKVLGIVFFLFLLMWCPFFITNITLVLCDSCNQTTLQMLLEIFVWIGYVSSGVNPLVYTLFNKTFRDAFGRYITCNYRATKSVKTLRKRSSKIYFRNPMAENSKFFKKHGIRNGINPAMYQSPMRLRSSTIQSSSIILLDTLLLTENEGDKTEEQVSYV

| SMILES | Ki (Mu-type opioid receptor) [nM] | Ki [1] [nM] | Ki (Histamine H1 receptor) [nM] | Ki [2] [nM] | Ki [3] [nM] | Ki [4] [nM] | Ki [5] [nM] | Ki (D(4) dopamine receptor) [nM] | Ki [6] [nM] | Ki (D(1A) dopamine receptor) [nM] | Ki (D(1B) dopamine receptor) [nM] | Ki (D(2) dopamine receptor) [nM] | Ki [7] [nM] |
| --- | --- | --- | --- | --- | --- | --- | --- | --- | --- | --- | --- | --- | --- |
| Cc1c(P(=S)(c2ccccc2)c2ccccc2)n2ccccc2[n+]1C/C=C/c1ccccc1 | 102 | 222 | > 10000 | 2790 | 1140 |  |  |  |  |  |  |  |  |
| O=S1(=O)c2cccc3cccc(c23)N1CCCN1CCN(c2ccc(F)cc2)CC1 [FANANSERIN] |  | 1030 | 30.6 |  |  | 518 | 2690 | 95.7 | 1100 |  |  |  |  |
| CN1CCN(c2ccc(Nc3c4ccccc4nc4ccccc34)cc2)CC1 |  |  | 403 |  |  |  | 451 |  | 1150 | 4540 |  |  |  |
| Cc1nc2sccn2c(=O)c1CCN1CCC(=C(c2ccc(F)cc2)c2ccc(F)cc2)CC1 [RITANSERIN] | 344 | 375 | 12.2 |  |  |  | 318 | 238 | 568 | 330 | 493 | 184 |  |
| CN1CCCC(n2nc(Cc3ccc(Cl)cc3)c3ccccc3c2=O)CC1 (stereo not given) [AZELASTINE HYDROCHLORIDE] |  |  |  | 230 | > 10000 |  |  |  |  | 577 |  | 1180 |  |
| CN1C[C@H](C(=O)N[C@]2(C)O[C@@]3(O)[C@@H]4CCCN4C(=O)[C@H](Cc4ccccc4)N3C2=O)C[C@@H]2c3cccc4[nH]cc(c34)C[C@H]21 [DIHYDROERGOTAMINE MESYLATE] | 154 |  |  |  |  | 39.1 |  | 32.8 |  |  | 2950 | 60.9 |  |
| COC(=O)C1=C(C)NC(C)=C(C(=O)OCCCN2CCC(c3ccccc3)(c3ccccc3)CC2)[C@H]1c1cccc([N+](=O)[O-])c1 [NIGULDIPINE] | 129 |  | 89.7 |  | 2150 | 539 | 591 |  | 862 | 370 | 1240 | 280 |  |
| CN(C)C(=O)N[C@H]1CC[C@H](CCN2CCN(c3cccc(Cl)c3Cl)CC2)CC1 [CARIPRAZINE HYDROCHLORIDE] |  | 234 |  |  |  |  |  |  |  |  |  |  |  |
| Cc1nc(-c2ccc(-c3ccc(C(=O)N4CCc5cc6c(cc54)C4(CCN(C)CC4)CO6)cc3)c(C)c2)no1 [SB-224289] |  |  |  | 1780 | 926 |  | 1180 |  |  | 369 | 1080 |  |  |
| Cc1ccc2c(c1)c1c(n2CCc2ccc(C)nc2)CCN(C)C1 [LATREPIRDINE] |  | 2920 |  | 726 |  |  |  |  |  |  |  | 1550 | 603 |
| Clc1cccc(COc2cncc(N3CCNCC3)n2)c1 |  |  | 1450 | 105 | 851 | 7440 |  |  |  |  |  |  | 9.94 |
| COc1ccc(NC(=O)c2ccc(-c3ccc(-c4noc(C)n4)cc3C)cc2)cc1OCCN(C)C |  | 704 |  | 35.7 |  |  | 984 |  | 833 |  |  |  |  |
| COc1cc(-n2cnc3cc(-c4ccc(Cl)cc4)sc3c2=O)ccc1OCCN1CCCC1 |  |  |  |  | 4130 |  |  |  | > 10000 |  |  |  | 528 |

The next lines start with the values.

| Ki (Mu-type opioid receptor) [nM] | Ki [1] [nM] | Ki (Histamine H1 receptor) [nM] | Ki [2] [nM] | Ki [3] [nM] | Ki [4] [nM] | Ki [5] [nM] | Ki (D(4) dopamine receptor) [nM] | Ki [6] [nM] | Ki (D(1A) dopamine receptor) [nM] | Ki (D(1B) dopamine receptor) [nM] | Ki (D(2) dopamine receptor) [nM] | Ki [7] [nM] | SMILES |
| --- | --- | --- | --- | --- | --- | --- | --- | --- | --- | --- | --- | --- | --- |
|  | 59.9 | 8.88 | 18.3 |  | 23.2 | 364 | 36 | 65.6 | 37.5 | 344 | 5.99 |  | O=c1ccc2ccc(OCCCCN3CCN(c4cccc5sccc45)CC3)cc2[nH]1 [BREXPIPRAZOLE] |
|  |  |  |  |  |  | 149 | 1080 |  |  |  |  |  | OCc1cc(C(O)CNCCCCCCOCCCCc2ccccc2)ccc1O (stereo not given) [SALMETEROL] |
| 730 | 1380 | 364 |  |  |  | 21.8 | 824 |  |  |  | 553 | 65 | N#Cc1ccc2[nH]cc(CCCCN3CCN(c4ccc5oc(C(N)=O)cc5c4)CC3)c2c1 [VILAZODONE HYDROCHLORIDE] |
|  | 359 | 125 |  |  |  |  | 326 |  |  |  | 736 |  | CCc1nn(CCCN2CCN(c3cccc(Cl)c3)CC2)c(=O)n1CCOc1ccccc1 [NEFAZODONE HYDROCHLORIDE] |
| 495 |  |  | 548 |  |  |  |  |  |  |  |  | 227 | CCc1ccc(OCc2ccccc2C(=O)Nc2ccc3nc(C)cc(N)c3c2)cc1 |
|  | 536 | 649 | 202 |  |  | 295 |  | 209 | 1720 | 1980 |  |  | S=C(NCCCc1c[nH]cn1)NCCCN(Cc1ccc(Cl)c(Cl)c1)c1ccc(Br)cn1 |
|  | 360 | 3530 |  |  | 47 |  | 1580 |  |  |  | 989 | 2090 | C[C@H](Cc1cc2c(c(C(N)=O)c1)N(CCCO)CC2)NCCOc1ccccc1OCC(F)(F)F [SILODOSIN] |
| 2850 |  |  | 431 |  | 83.9 |  | 191 |  |  | 4120 | 297 | 15.6 | CCCCCNC(=N)N/N=C/c1c[nH]c2ccc(OC)cc12 [TEGASEROD MALEATE] |
